In ChEMBL document CHEMBL5653619, “A potent, selective and cell-active allosteric inhibitor of protein arginine methyltransferase 3 (PRMT3)” (Angew Chem Int Ed Engl, 2015):

Assays:
[1] = biological target: T1, 5-hydroxytryptamine receptor 2B (Homo sapiens, UniProt P41595); assay: Inhibition of [3H]LSD binding to 5-HT2B receptor (unknown origin)
[2] = test system: LNCaP; assay: Cytotoxicity against human LNCaP cells assessed as reduction in cell viability at 50 to 100 uM incubated for 72 hrs by alamar blue assay; type: toxicity, cell-based; conditions: dose 50-100 µM
[3] = biological target: T1, 5-hydroxytryptamine receptor 2B; conditions: dose 32000.0 nM
Description: Inhibition of [3H]LSD binding to 5-HT2B receptor (unknown origin) assessed as maximum inhibition at 32000 nM relative to control

[4] = test system: U2OS; assay: Cytotoxicity against human U2OS cells assessed as reduction in cell viability at 50 to 100 uM incubated for 72 hrs by alamar blue assay; type: toxicity, cell-based; conditions: dose 50-100 µM
[5] = test system: U2OS; assay: Cytotoxicity against human U2OS cells assessed as reduction in cell viability incubated for 24 hrs by alamar blue assay; type: toxicity, cell-based
[6] = Toxicity in CD-1 mouse assessed as drug tolerance at 30 mg/kg, ip measured for 6 hrs; type: organism-based; conditions: in vivo
[7] = test system: MCF7; assay: Cytotoxicity against human MCF7 cells assessed as reduction in cell viability incubated for 24 hrs by alamar blue assay; type: toxicity, cell-based; conditions: mcf7, 24 h
[8] = test system: MCF7; assay: Cytotoxicity against human MCF7 cells assessed as reduction in cell viability at 50 to 100 uM incubated for 72 hrs by alamar blue assay; type: toxicity, cell-based; conditions: mcf7, 72 h, dose 50-100 µM
[9] = test system: MDA-MB-231; assay: Cytotoxicity against human MDA-MB-231 cells assessed as reduction in cell viability incubated for 24 hrs by alamar blue assay; type: toxicity, cell-based; conditions: mda-mb-231, 24 h
[10] = Drug concentration in CD-1 mouse plasma at 30 mg/kg, ip measured at 6 hrs post injection; type: ADME, organism-based
[11] = test system: HFF; assay: Cytotoxicity against HFF cells assessed as reduction in cell viability incubated for 24 hrs by alamar blue assay; type: toxicity, cell-based; conditions: human
[12] = biological target: KV channel (voltage-gated potassium channel family) (Homo sapiens, UniProt O43525+O43526+O95259+P16389+P17658+P22001+P22459+P22460+P48547+P51787+P56696+Q03721+Q09470+Q12809+Q14003+Q14721+Q16322+Q6PIU1+Q8NCM2+Q8TAE7+Q8TDN1+Q8TDN2+Q92953+Q96KK3+Q96L42+Q96PR1+Q96RP8+Q9BQ31+Q9H252+Q9H3M0+Q9NR82+Q9NS40+Q9NSA2+Q9NZV8+Q9UIX4+Q9UJ96+Q9UK17+Q9ULD8+Q9ULS6+Q9UQ05); assay: Inhibition of KV channel (unknown origin) at 10 uM by antagonist ligand based assay relative to control; type: protein assay
[13] = Half life in CD-1 mouse at 30 mg/kg, ip measured for 6 hrs; type: ADME, organism-based; conditions: in vivo
[14] = test system: MDA-MB-231; assay: Cytotoxicity against human MDA-MB-231 cells assessed as reduction in cell viability at 50 to 100 uM incubated for 72 hrs by alamar blue assay; type: toxicity, cell-based; conditions: mda-mb-231, 72 h, dose 50-100 µM
[15] = test system: HEK293; assay: Cytotoxicity against HEK293 cells assessed as reduction in cell viability incubated for 24 hrs by alamar blue assay; type: toxicity, cell-based; conditions: human, hek293, 24 h
[16] = test system: HFF; assay: Cytotoxicity against HFF cells assessed as reduction in cell viability at 50 to 100 uM incubated for 72 hrs by alamar blue assay; type: toxicity, cell-based; conditions: human, dose 50-100 µM
[17] = test system: HEK293; assay: Cytotoxicity against HEK293 cells assessed as reduction in cell viability at 50 to 100 uM incubated for 72 hrs by alamar blue assay; type: toxicity, cell-based; conditions: human, hek293, 72 h, dose 50-100 µM
[18] = test system: LNCaP; assay: Cytotoxicity against human LNCaP cells assessed as reduction in cell viability incubated for 24 hrs by alamar blue assay; type: toxicity, cell-based

T1 sequence (P41595 whole entry): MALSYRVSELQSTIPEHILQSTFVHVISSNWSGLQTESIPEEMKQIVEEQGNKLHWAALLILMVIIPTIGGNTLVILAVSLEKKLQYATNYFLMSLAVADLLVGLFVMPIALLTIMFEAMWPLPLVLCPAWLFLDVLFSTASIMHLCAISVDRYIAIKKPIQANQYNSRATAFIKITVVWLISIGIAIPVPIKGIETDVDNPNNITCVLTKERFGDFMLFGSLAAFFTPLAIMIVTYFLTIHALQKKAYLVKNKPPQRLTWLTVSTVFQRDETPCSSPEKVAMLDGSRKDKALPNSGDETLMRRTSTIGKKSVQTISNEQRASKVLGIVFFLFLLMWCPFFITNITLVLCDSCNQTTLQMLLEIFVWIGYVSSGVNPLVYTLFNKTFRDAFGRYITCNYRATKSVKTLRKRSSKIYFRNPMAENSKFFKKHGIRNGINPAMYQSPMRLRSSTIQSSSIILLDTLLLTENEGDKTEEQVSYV

Ki [1] [nM] | Imax [3] [%] | concentration at 6 h [10] [nM] | inhibition at 10 µM [12] [%] | half-life [13] [h] | SMILES | Activity [2] | Activity [4] | Activity [5] | Activity [6] | Activity [7] | Activity [8] | Activity [9] | Activity [11] | Activity [14] | Activity [15] | Activity [16] | Activity [17] | Activity [18]
18.5 | – | – | – | – | Cn1ccc2cc3c(cc21)CCN3C(=O)Nc1cccnc1 | – | – | – | – | – | – | – | – | – | – | – | – | –
> 15000 | 50 | 208 | -12 | ~1 | O=C(NCC(=O)N1CCCC1)Nc1ccc2cnccc2c1 | Toxic | Toxic | Non-Toxic | Non-Toxic | Non-Toxic | Toxic | Non-Toxic | Non-Toxic | Toxic | Non-Toxic | Toxic | Toxic | Non-Toxic
